In patent publication US20200397965A1, “METHOD AND SYSTEM FOR […] MONOXIDE (CO) ADMINISTRATION TO EX-VIVO FLUIDS” (Julius-Maximilians-Universitaet Wuerzburg, priority 2018, published 2020):

Test: ICP-MS analysis for molybdenum in harvested organs and blood after ECCORS CO delivery in veno-arterial ECMO
Assay type: in vivo, landrace-hybrid pigs
Settings: swine on ECMO with ECCORS, Beck1 injected into FeCl3 secondary circuit behind silicone membrane
Procedure: After obtaining consent by Regierungspraesidium Freiburg, seven landrace-hybrid pigs (weight 52±2 kg) were anesthetized (continuous infusion of propofol, fentanyl and cisatracurium), mechanically ventilated and monitored with electrocardiogram, pulse-oximetry and invasive blood pressure measurement by cannulating the carotid and pulmonary artery. Instrumentation with veno-arterial ECMO (extracorporeal membrane oxygenation) was carried out in a sterile technique: Venous access was achieved by ultrasound-guided cannulation of femoral vein (21 French HLS cannula, Maquet, Rastatt, Germany), while arterial inflow into the femoral artery was established using 17 French HLS cannula from Maquet, (Rastatt, Germany). The ECMO circuit (primary circuit) was then set-up using a customary centrifugal pump head (Revolution 5, Sorin, Rome, Italy), an oxygenator (EOS ECMO, Sorin, Rome, Italy), and 3/8” tubing for interconnection. The system was regulated using a modified console (core element: SCP-Console, Sorin, Rome, Italy).
The ECCORS was then integrated in line with the oxygenator into the primary ECMO circuit. A commercially available PDMSXA-1.0 silicone membrane module from PermSelect (AnnArbor, II) served as core functional element of the ECCORS. […]
Tissue was analyzed for CO effects and residual CORM constituents in the harvest organs and blood using ICP-MS analysis for molybdenum. […]

With Mo(CO)3(CNCH2COOH)3 [CORM] the “toxic components of CORM / transition metals found in tissue or blood” value was “no transition metals can be found in the tissue or blood”.
